Two compounds from PMC11986975, “A Cdk5 inhibitor restores cognitive function and alleviates type 2 diabetes in mice” (iScience, 2025) can be followed below.

Series [1] has as its target Cdk1/CylY. The experiment in a line: Specificity kinase assay, Cdk1 with cyclin Y. The class given is biochemical. The settings on record: inhibitor 0-100 nM; read-out: IC50, Cdk1 with activator cyclin Y. An excerpt: (§1) To assess the specificity of inhibitors BLINK11 and BLINK15 against CDK5, we investigated their effects on different Cdks, i.e., Cdk1, Cdk2, and Cdk9 that share structural homology with CDK5. […] However, these IC50 values were higher than those observed for CDK5/p35 and CDK5/p25. […] Overall, BLINK11 and BLINK15 can selectively target CDK5 at lower concentrations. […]
(§2) IC50 of all the kinases for both BLINK11 and BLINK15 inhibitors.

Series [2] has as its system Cdk2/CylA2. The experiment in a line: Specificity kinase assay, Cdk2 with cyclin A2. Type of series: biochemical. The settings on record: inhibitor 0-100 nM.
From the text: as §1, §2

The test system of series [3] is Cdk9/CylT. The experiment in a line: Specificity kinase assay, Cdk9 with cyclin T. The class given is biochemical. The settings on record: inhibitor 0-100 nM.
From the text: To assess the specificity of inhibitors BLINK11 and BLINK15 against CDK5, we investigated their effects on different Cdks, i.e., Cdk1, Cdk2, and Cdk9 that share structural homology with CDK5. […] However, these IC50 values were higher than those observed for CDK5/p35 and CDK5/p25. […] Overall, BLINK11 and BLINK15 can selectively target CDK5 at lower concentrations.
ligands are illustrated with red lines. The RMSD plots for the interactions of BLINK11 and
Figure S3: BBB Permeability assay and Evaluation of non-specific kinase inhibition by
BLINK11 and BLINK15 (A-B) PAMPA assay results of BLINK11 and BLINK15 compound.
as §2
(1 picture or pasted object on this page, not shown here)

The nature of series [4]: PAMPA blood-brain barrier permeability assay (brain polar lipid extract). Type of series: in vitro ADME. The settings on record: 7 h incubation, 100-500 uM, > 10*10^-6 cm/s = high permeability, read-out: Paap (PAMPA-BBB permeability). How it is done:
PAMPA assay was performed using a PAMPA filter plate (MAIPNTR10) coated with brain polar lipid extract (141101P) to evaluate blood-brain barrier (BBB) permeability of the compounds. The assay was performed with the help of the protocol provided by Merck Millipore on their official website and articles as cited.[62]^,[63] 5% of brain polar solution was used to coat the donor plate (15ul per well) by drying the plate in a fume hood. The acceptor plate was filled with 300ul of buffer (5% DMSO in PBS). The donor plate coated with brain polar solution was placed above the acceptor plate and different concentrations of Cdk5 inhibitor (100-500uM) dissolved in 5% DMSO were added to it (150ul per well). After 7 h of incubation, the absorbance was measured at broad spectrum 250–500 nm. […] For permeability, the Papp of the drugs was calculated.Paap = C ∗ -ln (1-[drugacceptor]/[Drugequilibrium]); C=VD∗VA/(VD + VA) ∗ area ∗ timePaap < 10∗10^−6 cm/s - Low permeability; Paap > 10∗10^−6 cm/s - high permeability

The test system of series [5] is HFD-fed mice. The experiment in a line: Insulin tolerance test (ITT) in HFD mice. The class given is in vivo. The settings on record: i.p., both dosages 20 and 40 mg/kg/day, 20 days. On the procedure: For the glucose tolerance test, 2 g/kg of glucose was utilized, and 0.75U/kg of human insulin was employed The glucose tolerance test (GTT) and insulin tolerance test (ITT) were performed in HFD mice models after 20 weeks of HFD feeding followed by 20 days of drug administration.[48] For GTT the mice were kept in a fasting period for overnight before glucose injections of 2 g/kg intraperitoneally. For ITT the mice were kept in a fasting for 6 h prior to insulin injection of 0.75 U/kg intraperitoneally. A one-touch glucometer was used to assess the blood sugar levels at various intervals (0, 60, and 120 min) following intraperitoneal infusion of both glucose and insulin.[23]^,[49]^,[50]^,[51] After 20 weeks of a HFD and 20 days of drug administration, the tests were carried out.

Series [6] has as its system HFD-fed mice. The experiment in a line: Morris water maze (MWM) in HFD mice. Type of series: in vivo. The settings on record: i.p., both doses 20 and 40 mg/kg/day, 20 days. On the procedure:
The MWM test was conducted to evaluate memory and spatial learning in mice, using visual cues placed on the walls of a water tank. For five consecutive days, the mice were trained in the water maze, with each session involving the release of the mice from various starting points and the task of locating a hidden platform within the maze. Each day, the mice underwent four trials, following the established protocol by Charles V. Vorhees (2006). The time taken (latency) for each mouse to find the platform was measured and recorded throughout the training period.
On the sixth day, a probe test was conducted to assess reference memory. The hidden platform was removed, and the mice’s behavior was observed as they navigated the maze. The time spent in the target quadrant and the time taken to reach the former platform location were recorded. This probing phase aimed to evaluate the mice’s retention of the spatial information and memory acquired during the training sessions. The MWM test evaluated memory and spatial learning in mice using visual cues in a water tank. Over five days, mice were trained to find a platform within the tank, undergoing four trials daily as per Charles V. Vorhees' protocol. On day six, a probing experiment assessed reference memory. […] Time spent and latency to reach the target quadrant were recorded. […]

Series [7] deals with T1, CDK5.
T1 construct: Cdk5 kinase activity using pulled down Cdk5 from the hippocampus lysate of the mouse groups; from tissue; host or cells: hippocampus / brain lysate of male C57BL/6J mice on high-fat diet
The experiment in a line: Cdk5 kinase activity of Cdk5 pulled down from hippocampus lysate of treated HFD mice. The class given is in vivo. The settings on record: i.p., 20 days, in the presence of p25. How it is done: Cdk5 was immunoprecipitated from N2A cells and brain lysate using a Cdk5 antibody. Kinase assays were performed using a Promega ADP-Glo Kinase Assay kit with Cdk5/p35 and Cdk5/p25 complexes. Histone was used as a substrate to test kinase activity Cdk5 was immunoprecipitated from N2a cells overexpressing Cdk5/p35 and Cdk5/p25, following treatment with BLINK11 and BLINK15 inhibitors at concentrations of 50nM and 100nM, using a Cdk5 antibody. A kinase assay was subsequently conducted as described in Bankston et al.[53] Additionally, Cdk5 was precipitated from mouse brain lysates treated with BLINK11 and BLINK15 inhibitors. The immunoprecipitation was performed with 100 μL of A/G beads, 2 μg of Cdk5 antibody, and 150 μg of cell and brain lysates, with elution carried out using a urea elution buffer. The kinase assay was conducted using the ADP-Glo Kinase Assay Kit (Promega) with immunoprecipitated Cdk5, ATP, and 1–2 μg of histone as the substrate.

Structures are written as SMILES.

Chain of Cdk1/CylY (P06493 whole entry): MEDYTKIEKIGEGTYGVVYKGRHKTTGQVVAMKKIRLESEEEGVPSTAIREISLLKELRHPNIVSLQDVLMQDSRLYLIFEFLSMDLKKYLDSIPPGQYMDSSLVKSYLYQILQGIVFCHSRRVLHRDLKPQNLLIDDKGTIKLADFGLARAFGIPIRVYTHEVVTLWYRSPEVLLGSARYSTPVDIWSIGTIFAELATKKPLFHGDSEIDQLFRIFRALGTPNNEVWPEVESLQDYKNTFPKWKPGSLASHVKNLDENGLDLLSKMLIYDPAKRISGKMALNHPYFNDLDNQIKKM
Chain of Cdk1/CylY (Q8ND76 2-341 partner): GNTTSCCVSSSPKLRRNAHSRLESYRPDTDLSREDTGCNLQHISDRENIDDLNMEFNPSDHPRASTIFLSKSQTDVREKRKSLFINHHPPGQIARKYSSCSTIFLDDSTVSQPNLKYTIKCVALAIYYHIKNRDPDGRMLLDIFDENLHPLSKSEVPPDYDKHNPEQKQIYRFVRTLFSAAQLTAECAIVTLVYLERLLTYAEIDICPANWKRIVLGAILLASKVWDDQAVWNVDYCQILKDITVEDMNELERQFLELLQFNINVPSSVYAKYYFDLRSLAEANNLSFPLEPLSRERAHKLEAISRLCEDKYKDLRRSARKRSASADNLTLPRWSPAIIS

In the case of `O=C(COc1ccccc1C(=O)Nc1cccc(Cl)c1Cl)Nc1ccc(N2CCOCC2)c(Cl)c1` [BLINK11, 2-(2-((3-chloro-4-morpholinophenyl)amino)-2-oxoethoxy)-N-(2,3-dichlorophenyl)benzamide], the half-inhibitory concentration (IC50) in series [1] turned out to be 39.3 nM. In series [2], the “Inhibition of Cdk2 (with cyclin A2)” value was “minimal inhibition”. The “Inhibition of Cdk9 (with cyclin T)” value in series [3] is listed as “minimal inhibition”. Moreover, in series [4], the Papp at 7 h is more than 10 ×10⁻⁶ cm/s. Further, in series [5], the “Insulin tolerance test (ITT)” value is on record as “significant rescue”. For the same compound, the “Water maze time to reach the platform (spatial learning and memory)” value in series [6] is reported as “rescue behavior”. In addition, the “CDK5 activity in hippocampal lysate” value in series [7] is on record as “significant reduction in CDK5 activity”.

With `COc1ccc(C(=O)C[C@@]2(O)C(=O)N(Cc3ccccc3)c3ccc(Br)cc32)cc1[N+](=O)[O-]` [BLINK15], in series [1], the concentration for half-maximal inhibition (IC50) was determined as 35.8 nM. In addition, the “Inhibition of Cdk2 (with cyclin A2)” value in series [2] is listed as “minimal inhibition”. Moreover, in series [3], the “Inhibition of Cdk9 (with cyclin T)” value is “minimal inhibition”. In series [4], the Papp at 7 h is more than 10 ×10⁻⁶ cm/s. In addition, the “Insulin tolerance test (ITT)” value in series [5] is “significant rescue”. For the same compound, the “Water maze time to reach the platform (spatial learning and memory)” value in series [6] is “rescue behavior”. For the same compound, in series [7], the “CDK5 activity in hippocampal lysate” value is on record as “significant reduction in CDK5 activity”.
